Source: patent US8765211B2, “Method for coating metal implants with therapeutic mixtures” (Enbio Limited, priority 2009, dated 2014)

What was measured:
[1] = Elution of vancomycin from beaded Ti coupons with zero, one or two PLGA layers in PBS buffer (UV/VIS); type: physicochemical; conditions: beaded Ti coupon
Description: A 25 mm diameter coupon with a sintered titanium beaded surface was used as the test substrate. […] Vancomycin was dissolved in water to produce a solution of 0.5 g/25 ml. 0.5 ml of this solution was then applied in droplet form to the surface of each sample coupon and allowed to dry in an oven at 40° C. This technique was repeated three times to give a total loading of 1.5 ml of the vancomycin solution per coupon.
PLGA polymer (2.5 g) was dissolved in 50 mL of dichloromethane solvent. The polymer solution was added to the surface of the drug loaded coupons in a dropwise fashion similar to that employed to deploy the drug. Again, three applications of 0.5 ml were applied to produce a single layer of polymer with sufficient time being allowed between each application to allow the solvent to evaporate.
To investigate the effect of polymer coating thickness, a second set of three PLGA solutions were applied to form a batch of samples with 6 applications of polymer in total. This produced a sample with twice the coating thickness and is therefore herein referred to as having two layers of polymer.
All samples were then treated with an abrasive blasting process as described in WO2008/033867. The equipment platform was a Comco Standard Lathe. Two nozzles were employed to deliver an abrasive and a dopant respectively. The abrasive chosen was MCD 106 microns (Himed, NY, USA) and the dopant was hydroxyapatite (25/60 microns, SAI, France). The abrasive was delivered at a pressure of 75 psi and the dopant was delivered at 90 psi. The substrate was moved at a speed of 13 mm/sec relative to the nozzles.
Drug elution studies were carried out in PBS buffer solution and drug concentrations were determined using an Agilent 8453 UV/VIS spectrophotometer system. The elution profile of samples with zero, one and two layers of polymer were determined over 48 hours and the % vancomycin elution was determined. […] In the absence of any polymer coating, the drug had effectively eluted form the surface within 30 minutes and no further elution was detected.

[2] = Elution of gentamicin sulphate from PLGA-coated, abrasively blasted porous beaded titanium hip stem in phosphate saline buffer (Abbott TDx/FLX); type: physicochemical; conditions: Summit hip stem with Porocoat finish, GS plus PLGA overcoat, blasted with MCD/HA; immersed in 300 ml phosphate saline buffer
Description: This example describes the modification of an implantable titanium hip stem containing a porous beaded surface. A Summit hip stem (DePuy) with a Porocoat finish was used as the substrate. The active chosen for study was gentamicin sulphate (GS).
The stem was first coated GS by dissolving 0.6 g of GS in 10 ml of water and applying the solution to the surface drop wise. In total, 0.1575 g of GS was added to the surface. Once dry, a polymer overcoat was applied by adding a solution of PLGA (3.5 g of PLGA in 10 ml of dichloromethane) dropwise and allowing to dry The coated hip stem was then abrasively blasted as per WO2008/033867 to remove the outer layer of polymer. Blasting was carried out in a Comco Standard Lathe operating at a pressure of 100 psi. MCD abrasive grit (Supplied by Himed, New York) was used as the abrasive and HA (SAI, France) was used as the dopant. Each powder was fed in a separate stream at the surface at a pressure of 100 psi and with an offset distance of 15-25 mm. The blast device was moved over the surface at a speed of approximately 100 mm/sec.
Elution of the drug from the surface was evaluated by immersing the entire hip stem in 300 ml of phosphate saline buffer and measuring drug concentration in solution using an Abbott TDx/FLX system. […]

Row | Compound | time by which the drug had effectively eluted from the surface ([1]; no polymer coating (zero layers)) | time to complete elution ([1]; single layer of polymer (3 applications of PLGA)) | elution duration ([1]; twice the thickness of polymer (6 applications of PLGA, two layers)) | duration of gentamicin release [2] | time in which the bulk of the drug is released [2]
1 | CN[C@H](CC(C)C)C(=O)N[C@H]1C(=O)N[C@@H](CC(N)=O)C(=O)N[C@H]2C(=O)N[C@H]3C(=O)N[C@H](C(=O)N[C@H](C(=O)O)c4cc(O)cc(O)c4-c4cc3ccc4O)[C@H](O)c3ccc(c(Cl)c3)Oc3cc2cc(c3O[C@@H]2O[C@H](CO)[C@@H](O)[C@H](O)[C@H]2O[C@H]2C[C@](C)(N)[C@H](O)[C@H](C)O2)Oc2ccc(cc2Cl)[C@H]1O [vancomycin] | ≤ 30 min | up to 10 hours | 24 h | – | –
2 | gentamicin sulphate | – | – | – | 4 days | within the first day
